Measurements: ChEMBL document CHEMBL6153124, “Structural Chemistry of Helicase Inhibition” (J Med Chem, 2025)

Columns and labels:
[1] = biological target: SWI/SNF-related matrix-associated actin-dependent regulator of chromatin subfamily A member 2 (Homo sapiens, UniProt P51531); assay: Inhibition of SMARCA2 (unknown origin)
[2] = Inhibition of Coxsackievirus B3 2C protein
[3] = biological target: Eukaryotic initiation factor 4A-I (Homo sapiens, UniProt P60842); assay: Inhibition of recombinant full length 6xHis-tagged EIF4A1 (unknown origin) by FP assay
Sequence of Eukaryotic initiation factor 4A-I (P60842 whole entry, the tested form may be a part): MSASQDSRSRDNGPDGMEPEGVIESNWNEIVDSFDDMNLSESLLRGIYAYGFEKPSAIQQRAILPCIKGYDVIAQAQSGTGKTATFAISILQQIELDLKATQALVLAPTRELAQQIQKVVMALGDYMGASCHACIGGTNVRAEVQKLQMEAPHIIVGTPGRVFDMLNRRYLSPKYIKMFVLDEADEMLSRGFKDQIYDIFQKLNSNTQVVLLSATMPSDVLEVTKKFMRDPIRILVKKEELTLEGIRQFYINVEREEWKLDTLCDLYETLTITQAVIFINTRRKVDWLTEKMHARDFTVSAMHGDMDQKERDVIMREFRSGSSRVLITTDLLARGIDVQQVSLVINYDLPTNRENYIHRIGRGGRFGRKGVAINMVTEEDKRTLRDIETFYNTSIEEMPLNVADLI

[4] = biological target: T1, Bifunctional 3'-5' exonuclease/ATP-dependent helicase WRN (Homo sapiens, UniProt Q14191); assay: Inhibition of N-terminal Hexa-histidine-tagged human recombinant WRN helicase domain (517 to 945 residues) extracted from Baculovirus infected Sf9 cells by fluorescence based analysis
T1 sequence (Q14191 whole entry, the tested form may be a part): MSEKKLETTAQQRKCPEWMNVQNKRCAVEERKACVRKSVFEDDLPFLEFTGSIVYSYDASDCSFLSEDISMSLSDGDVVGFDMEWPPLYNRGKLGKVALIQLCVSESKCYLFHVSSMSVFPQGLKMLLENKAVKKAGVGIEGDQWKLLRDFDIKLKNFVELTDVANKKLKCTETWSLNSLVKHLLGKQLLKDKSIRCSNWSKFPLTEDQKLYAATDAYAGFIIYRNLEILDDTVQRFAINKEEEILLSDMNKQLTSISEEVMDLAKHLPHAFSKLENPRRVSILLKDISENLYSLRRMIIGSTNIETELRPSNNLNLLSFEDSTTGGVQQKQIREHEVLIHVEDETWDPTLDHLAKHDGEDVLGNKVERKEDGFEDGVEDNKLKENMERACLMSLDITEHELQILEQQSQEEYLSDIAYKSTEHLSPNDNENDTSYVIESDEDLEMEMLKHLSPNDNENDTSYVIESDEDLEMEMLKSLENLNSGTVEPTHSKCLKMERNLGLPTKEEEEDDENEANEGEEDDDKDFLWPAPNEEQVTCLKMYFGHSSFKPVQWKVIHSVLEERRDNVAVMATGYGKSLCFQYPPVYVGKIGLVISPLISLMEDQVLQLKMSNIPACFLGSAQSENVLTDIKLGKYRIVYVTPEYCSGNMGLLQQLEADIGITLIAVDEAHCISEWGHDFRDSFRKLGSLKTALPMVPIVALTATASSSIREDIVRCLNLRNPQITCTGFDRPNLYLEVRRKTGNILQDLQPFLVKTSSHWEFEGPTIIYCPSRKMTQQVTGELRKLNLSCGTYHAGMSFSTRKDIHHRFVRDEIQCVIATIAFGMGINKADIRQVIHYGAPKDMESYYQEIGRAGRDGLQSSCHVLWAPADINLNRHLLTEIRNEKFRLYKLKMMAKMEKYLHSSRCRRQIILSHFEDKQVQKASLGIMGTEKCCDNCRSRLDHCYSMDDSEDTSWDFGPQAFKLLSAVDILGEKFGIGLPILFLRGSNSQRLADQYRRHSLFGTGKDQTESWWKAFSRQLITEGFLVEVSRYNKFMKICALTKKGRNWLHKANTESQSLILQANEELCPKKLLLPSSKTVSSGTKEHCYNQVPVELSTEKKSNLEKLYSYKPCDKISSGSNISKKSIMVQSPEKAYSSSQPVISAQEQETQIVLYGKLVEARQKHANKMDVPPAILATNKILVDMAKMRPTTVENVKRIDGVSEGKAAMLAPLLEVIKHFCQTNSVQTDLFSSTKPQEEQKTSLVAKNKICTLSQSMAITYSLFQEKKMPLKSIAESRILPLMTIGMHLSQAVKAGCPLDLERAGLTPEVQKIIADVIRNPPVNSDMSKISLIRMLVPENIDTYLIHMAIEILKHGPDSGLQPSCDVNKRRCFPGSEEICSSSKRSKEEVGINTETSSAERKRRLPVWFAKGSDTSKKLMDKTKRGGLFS

[5] = biological target: T1, Bifunctional 3'-5' exonuclease/ATP-dependent helicase WRN; assay: Inhibition of N-terminal WRN (unknown origin)
[6] = Binding affinity to Coxsackievirus B3 2C protein assessed as dissociation constant
[7] = Inhibition of HSV-1 helicase DNA dependent ATPase activity assessed as reduction in helicase-primase complex; design: species or system Human alphaherpesvirus 1

Sequence of SWI/SNF-related matrix-associated actin-dependent regulator of chromatin subfamily A member 2 (P51531 whole entry): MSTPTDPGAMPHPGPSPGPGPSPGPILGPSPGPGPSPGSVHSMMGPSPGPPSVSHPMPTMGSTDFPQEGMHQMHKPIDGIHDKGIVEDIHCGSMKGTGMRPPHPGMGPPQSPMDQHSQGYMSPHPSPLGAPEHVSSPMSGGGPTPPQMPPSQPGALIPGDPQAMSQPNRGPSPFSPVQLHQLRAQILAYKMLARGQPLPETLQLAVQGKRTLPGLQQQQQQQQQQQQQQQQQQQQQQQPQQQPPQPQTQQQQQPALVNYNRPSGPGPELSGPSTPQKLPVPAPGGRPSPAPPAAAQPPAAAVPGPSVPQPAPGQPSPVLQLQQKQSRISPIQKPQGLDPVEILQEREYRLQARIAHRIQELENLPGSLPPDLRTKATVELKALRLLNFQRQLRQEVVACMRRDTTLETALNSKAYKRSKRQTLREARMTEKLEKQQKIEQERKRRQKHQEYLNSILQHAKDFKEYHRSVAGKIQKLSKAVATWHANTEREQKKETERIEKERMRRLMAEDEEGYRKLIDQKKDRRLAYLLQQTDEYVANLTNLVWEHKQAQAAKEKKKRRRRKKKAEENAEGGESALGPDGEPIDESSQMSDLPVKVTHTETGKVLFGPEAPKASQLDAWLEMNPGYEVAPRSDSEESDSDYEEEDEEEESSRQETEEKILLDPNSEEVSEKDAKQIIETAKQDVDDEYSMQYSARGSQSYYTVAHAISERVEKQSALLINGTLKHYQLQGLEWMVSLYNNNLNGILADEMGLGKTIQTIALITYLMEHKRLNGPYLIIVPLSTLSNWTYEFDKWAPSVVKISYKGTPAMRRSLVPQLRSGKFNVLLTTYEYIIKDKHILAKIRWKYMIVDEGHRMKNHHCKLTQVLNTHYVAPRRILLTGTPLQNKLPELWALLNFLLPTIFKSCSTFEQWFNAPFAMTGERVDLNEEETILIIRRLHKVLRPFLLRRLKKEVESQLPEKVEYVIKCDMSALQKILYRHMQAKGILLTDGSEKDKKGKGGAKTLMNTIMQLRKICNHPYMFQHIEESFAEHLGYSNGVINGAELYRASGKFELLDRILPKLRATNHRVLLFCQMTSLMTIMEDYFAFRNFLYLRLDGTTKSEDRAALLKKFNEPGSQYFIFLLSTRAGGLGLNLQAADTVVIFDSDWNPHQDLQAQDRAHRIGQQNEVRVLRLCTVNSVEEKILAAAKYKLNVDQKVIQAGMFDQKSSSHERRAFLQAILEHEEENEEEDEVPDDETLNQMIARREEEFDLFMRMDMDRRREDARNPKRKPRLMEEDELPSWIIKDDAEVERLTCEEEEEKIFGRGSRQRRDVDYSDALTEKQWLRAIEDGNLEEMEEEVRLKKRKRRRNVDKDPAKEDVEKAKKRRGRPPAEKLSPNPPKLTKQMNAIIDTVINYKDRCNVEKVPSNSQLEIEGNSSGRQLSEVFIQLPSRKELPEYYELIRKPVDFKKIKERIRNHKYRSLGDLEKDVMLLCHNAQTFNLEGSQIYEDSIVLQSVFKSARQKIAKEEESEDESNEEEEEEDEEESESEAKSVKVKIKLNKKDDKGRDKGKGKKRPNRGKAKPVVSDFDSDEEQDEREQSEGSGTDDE

In the case of `O=C(Nc1cc(C(F)F)ns1)Nc1cc(F)ncc1CO`, the IC50 [1] is reported as less than 5 nM.
`CNCC[C@H](Oc1ccc(C(F)(F)F)cc1)c1ccccc1` showed an EC50 [2] of 5000 nM.
`COC(=O)[C@H]1[C@@H](O)[C@@]2(O)c3c(OC)cc(O[C@@H]4O[C@@H]([C@H](O)CO)CO[C@H]4OC)cc3O[C@@]2(c2ccc(OC)cc2)[C@@H]1c1ccccc1` [SILVESTROL] showed an IC50 [3] of 60 nM.
Work on `CS(=O)(=O)CC[C@@H](NC(=O)c1cnc(C(F)(F)F)nc1Oc1ccccc1)C1CC1` yielded an IC50 [4] of 140 nM and an IC50 [5] of 140 nM.
In the case of `CC(/C=C/C(C)=C/[C@@H]1Cc2nc(cs2)CC[C@@H](N)CC(=O)O[C@@H](C)C/C(C)=C/C=C\C(=O)O1)=C\CN(C)C`, the IC50 [3] is reported as 1 nM.
Molecule `CNCCC(Oc1ccc(C(F)(F)F)cc1)c1ccccc1` (centres undefined) [FLUOXETINE] has a Kd [6] of 9500 nM and an EC50 [2] of roughly 5000 nM.
`Cc1cccc(C)c1N(CC(=O)Nc1ccc(-c2ncon2)cc1)C(=O)C1CCS(=O)(=O)CC1` gave an IC50 [7] of 78 nM.
